Here are results for one compound from PMC5761474 (Journal of Pharmaceutical Analysis, 2014).

As a reminder, the AUC(0-inf) is the area under the concentration-time curve extrapolated to infinity. High values mean high exposure, low ones low exposure. In general, AUC(0-t) refers to the area under the concentration-time curve up to a stated or last time point. High values mean high exposure, low ones low exposure. The term Cmax denotes the maximum level reached in the sampled fluid or tissue. In general, MRT inf refers to a mean duration of stay, worked out from the concentration-time curve. One may read the Tmax as the time from dosing to the highest level.

The series in a line: Pharmacokinetic study of DRV in rats after oral dosing. The series is classed as in vivo, male Wistar rats.
Setting [1] is: male, Wistar, rat, plasma, po, 50 mg/kg.
[2] abbreviates: oral 50 mg/kg, rats, n=6, mean±SD.

As to `CC(C)CN(C[C@@H](O)[C@H](Cc1ccccc1)NC(=O)O[C@H]1CO[C@H]2OCC[C@H]21)S(=O)(=O)c1ccc(N)cc1` [DRV, darunavir], under setting [1], the area under the curve AUC(0-inf) was determined as 1060 ± 49 ng·h/mL, the area under the curve AUC(0-t) amounted to 1010 ± 48 ng·h/mL, the Cmax came to 130 ± 4 ng/mL and the MRT inf is 7.89 ± 0.83 h. In addition, the time to peak (Tmax) under setting [1] was determined as 3 ± 0.28 h. Also, under setting [2], the “AUMC0−t” value is 6518±386 ng h^2/mL and the “AUMC0−∞” value came to 8408±914 ng h^2/mL.
